Laboratory results from patent publication US20240083853A1, “HSD17B13 INHIBITORS AND USES THEREOF” (FL2022-001, Inc., priority 2020, published 2024).

Biological target: T1, Recombinant human HSD17B13 enzyme (Homo sapiens, UniProt Q7Z5P4)
T1 sequence (Q7Z5P4 20-300): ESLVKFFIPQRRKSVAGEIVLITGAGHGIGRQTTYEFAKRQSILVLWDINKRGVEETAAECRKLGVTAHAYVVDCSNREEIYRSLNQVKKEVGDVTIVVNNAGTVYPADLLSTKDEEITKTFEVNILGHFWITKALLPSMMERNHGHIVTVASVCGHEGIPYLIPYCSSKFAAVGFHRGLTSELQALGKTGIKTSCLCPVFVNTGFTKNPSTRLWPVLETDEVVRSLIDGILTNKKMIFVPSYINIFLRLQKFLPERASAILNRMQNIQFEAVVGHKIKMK
Test: HSD17b13 NAD(P)H-Glo biochemical assay
Conditions: 50 uM estradiol, 1 mM NAD+, NAD(P)H-Glo luminescence; read-out: HSD17β13 IC50
Method in brief: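 Luminescent NAD(P)H-Glo read-out, taken after 1 hour at RT, measured cofactor reduction. Substrate and cofactor were estradiol at 50 uM and NAD+ at 1 mM final, reacted with the recombinant human enzyme for 3 hours at 37° C in 20 mM Tris pH7.4, 0.002% Tween-20, 0.02% BSA. Compound was pre-incubated with enzyme for 20 minutes at RT.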

IC50: 100 to 1000 nM
SMILES: Oc1c(F)cc2nnn(-c3ccc(N4CC5(CCOCC5)C4)cn3)c2c1F [Compound 26.15, 1-(5-(7-Oxa-2-azaspiro[3.5]nonan-2-yl)pyridin-2-yl)-5,7-difluoro-1H-benzo[d][1,2,3]triazol-6-ol]
